Test results taken from paper PMC9822396 (Molecules, 2022).
Where two headings read alike, the source gives them in different places.

Assays:
hMAO-B [1] = molecular target: T1, hMAO-B (Homo sapiens, UniProt P27338); details: read-out: hMAO-B inhibitory activity; cited from earlier work
T1 construct: purchased Sigma-Aldrich
T1 sequence (P27338 1-520): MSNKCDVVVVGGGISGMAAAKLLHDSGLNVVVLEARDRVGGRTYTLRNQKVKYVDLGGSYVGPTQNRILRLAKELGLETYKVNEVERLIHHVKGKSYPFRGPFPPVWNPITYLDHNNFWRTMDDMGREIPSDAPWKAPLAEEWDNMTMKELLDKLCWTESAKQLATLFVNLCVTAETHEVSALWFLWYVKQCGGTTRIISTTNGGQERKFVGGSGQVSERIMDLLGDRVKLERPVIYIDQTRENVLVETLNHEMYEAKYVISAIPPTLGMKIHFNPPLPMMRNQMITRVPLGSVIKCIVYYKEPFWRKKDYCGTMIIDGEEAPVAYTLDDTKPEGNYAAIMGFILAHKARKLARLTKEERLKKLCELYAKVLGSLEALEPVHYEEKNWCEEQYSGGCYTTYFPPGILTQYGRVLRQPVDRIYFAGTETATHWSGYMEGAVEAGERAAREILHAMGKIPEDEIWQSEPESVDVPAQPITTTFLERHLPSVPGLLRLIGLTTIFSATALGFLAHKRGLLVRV

BChE = molecular target: T2, BChE (Equus caballus, UniProt P81908); test: BChE inhibition (Ellman method); format: biochemical, equine; details: read-out: Residual Activity at 10 µM (%) BChE
T2 construct: BChE from equine serum; purchased Sigma-Aldrich; host or cells: equine serum
Description: (§1) All other chemicals were of reagent grade.
(§2) hMAO-A and -B activities were determined using a continuous spectrophotometric method, as described previously. […] AChE and BChE activities were assayed as described by Ellman et al., with slight modification. Reactions were performed using AChE and BChE in the 0.5 mL reaction mixtures including 0.5 mM substrate (ATCI and BTCI, respectively) and color reagent (DTNB). […] Reaction rates are expressed as changes in absorbance per min.. Inhibitory activities of AChE and BChE were measured after preincubating enzyme with inhibitors for 15 min before adding DTNB and each substrate. […]

BACE1 = molecular target: T3, BACE1 (Homo sapiens, UniProt P56817); test: BACE1 inhibition (fluorescent activity detection kit); format: biochemical; details: read-out: Residual Activity at 10 µM (%) BACE1
T3 construct: purchased Sigma-Aldrich

AChE = molecular target: T4, AChE (Electrophorus electricus, UniProt O42275); test: AChE inhibition (Ellman method); format: biochemical; details: read-out: Residual Activity at 10 µM (%) AChE
T4 construct: purchased Sigma-Aldrich
Description: as §1, §2

hMAO-A = molecular target: T5, hMAO-A (Homo sapiens, UniProt P21397); test: biochemical; details: for remaining activity at 10 µM: read-out: Residual Activity at 10 µM (%) hMAO-A
T5 construct: purchased Sigma-Aldrich
T5 sequence (P21397 1-527): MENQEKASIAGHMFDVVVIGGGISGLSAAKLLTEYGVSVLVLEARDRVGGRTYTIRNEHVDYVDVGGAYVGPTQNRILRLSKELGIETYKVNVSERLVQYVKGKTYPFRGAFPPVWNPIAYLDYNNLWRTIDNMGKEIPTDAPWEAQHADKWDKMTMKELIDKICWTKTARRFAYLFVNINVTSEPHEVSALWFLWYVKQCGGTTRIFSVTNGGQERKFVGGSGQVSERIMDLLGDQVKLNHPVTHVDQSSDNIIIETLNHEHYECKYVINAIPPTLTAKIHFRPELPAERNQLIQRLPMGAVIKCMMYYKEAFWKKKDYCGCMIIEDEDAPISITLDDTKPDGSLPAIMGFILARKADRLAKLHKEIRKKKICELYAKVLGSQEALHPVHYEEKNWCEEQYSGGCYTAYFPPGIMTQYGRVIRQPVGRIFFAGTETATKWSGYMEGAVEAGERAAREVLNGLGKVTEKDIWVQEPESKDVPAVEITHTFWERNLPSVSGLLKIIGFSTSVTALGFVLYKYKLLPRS
Description: as §1
hMAO-A and -B activities were determined using a continuous spectrophotometric method, as described previously. […] AChE and BChE activities were assayed as described by Ellman et al., with slight modification. Reactions were performed using AChE and BChE in the 0.5 mL reaction mixtures including 0.5 mM substrate (ATCI and BTCI, respectively) and color reagent (DTNB). […] Reaction rates are expressed as changes in absorbance per min.. Inhibitory activities of AChE and BChE were measured after preincubating enzyme with inhibitors for 15 min before adding DTNB and each substrate.
Inhibitory types and Ki values were determined using Lineweaver-Burk plots and secondary plots of their slopes, respectively.

hMAO-B [2] = molecular target: T1, hMAO-B; test: biochemical; format: biochemical; details: for remaining activity at 10 µM: read-out: Residual Activity at 10 µM (%) hMAO-B; for SI: hMAO-B selectivity: IC50 of hMAO-A divided by IC50 of hMAO-B
Description: as §1, §2

T2 sequence (P81908 whole entry): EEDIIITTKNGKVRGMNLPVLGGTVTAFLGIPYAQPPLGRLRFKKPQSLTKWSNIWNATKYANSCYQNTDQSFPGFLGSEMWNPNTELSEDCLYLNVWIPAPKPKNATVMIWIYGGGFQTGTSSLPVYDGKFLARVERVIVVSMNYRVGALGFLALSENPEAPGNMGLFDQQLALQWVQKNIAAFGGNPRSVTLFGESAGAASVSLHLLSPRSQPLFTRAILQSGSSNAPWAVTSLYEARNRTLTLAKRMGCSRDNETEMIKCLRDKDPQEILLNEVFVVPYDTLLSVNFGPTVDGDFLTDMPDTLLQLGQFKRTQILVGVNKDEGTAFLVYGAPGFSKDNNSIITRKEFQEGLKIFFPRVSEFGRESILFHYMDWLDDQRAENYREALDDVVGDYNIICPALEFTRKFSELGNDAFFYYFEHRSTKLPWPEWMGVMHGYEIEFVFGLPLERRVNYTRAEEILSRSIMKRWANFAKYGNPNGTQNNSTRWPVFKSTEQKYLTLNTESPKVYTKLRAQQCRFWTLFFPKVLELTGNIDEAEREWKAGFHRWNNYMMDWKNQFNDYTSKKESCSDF
T4 sequence (O42275 24-633): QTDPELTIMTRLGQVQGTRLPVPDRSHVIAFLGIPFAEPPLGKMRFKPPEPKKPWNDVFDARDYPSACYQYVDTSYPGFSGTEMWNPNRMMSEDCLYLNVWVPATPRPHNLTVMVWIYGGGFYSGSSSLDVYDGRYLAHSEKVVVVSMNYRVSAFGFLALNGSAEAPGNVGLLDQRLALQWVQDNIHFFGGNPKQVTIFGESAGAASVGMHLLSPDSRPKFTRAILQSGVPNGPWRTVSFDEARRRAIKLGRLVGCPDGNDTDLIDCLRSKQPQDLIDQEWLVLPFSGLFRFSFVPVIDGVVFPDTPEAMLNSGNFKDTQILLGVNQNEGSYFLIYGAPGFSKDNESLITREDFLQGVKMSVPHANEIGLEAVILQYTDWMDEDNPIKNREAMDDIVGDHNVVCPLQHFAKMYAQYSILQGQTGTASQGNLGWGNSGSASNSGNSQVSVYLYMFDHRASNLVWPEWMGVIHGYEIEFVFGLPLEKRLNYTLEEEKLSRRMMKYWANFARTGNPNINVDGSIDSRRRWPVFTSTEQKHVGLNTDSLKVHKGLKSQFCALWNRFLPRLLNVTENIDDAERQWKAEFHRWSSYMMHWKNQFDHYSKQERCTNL
T3 sequence (P56817 46-501): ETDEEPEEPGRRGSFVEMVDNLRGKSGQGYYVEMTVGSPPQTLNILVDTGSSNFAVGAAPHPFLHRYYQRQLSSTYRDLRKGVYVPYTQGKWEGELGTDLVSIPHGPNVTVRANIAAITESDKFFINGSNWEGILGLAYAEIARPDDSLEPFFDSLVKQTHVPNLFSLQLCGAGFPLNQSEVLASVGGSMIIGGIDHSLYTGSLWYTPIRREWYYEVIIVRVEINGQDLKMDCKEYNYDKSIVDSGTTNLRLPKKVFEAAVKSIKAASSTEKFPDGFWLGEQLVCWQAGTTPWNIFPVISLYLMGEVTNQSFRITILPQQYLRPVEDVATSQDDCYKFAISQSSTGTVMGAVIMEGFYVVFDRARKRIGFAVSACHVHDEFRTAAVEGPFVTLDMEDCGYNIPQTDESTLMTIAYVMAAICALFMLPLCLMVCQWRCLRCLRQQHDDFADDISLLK

Row | SMILES | IC50 (hMAO-B [1]) [µM] | remaining activity at 10 µM (BChE) [%] | remaining activity at 10 µM (BACE1) [%] | remaining activity at 10 µM (AChE) [%] | IC50 (hMAO-A) [µM] | remaining activity at 10 µM (hMAO-A) [%] | IC50 (hMAO-B [2]) [µM] | remaining activity at 10 µM (hMAO-B [2]) [%] | SI (hMAO-B [2]) | times lower MAO-B inhibition than compound 8 (hMAO-B [2]; ratio of IC50 values versus compound 8) [times]
1 | COc1ccc(-c2cc(=O)c3c(O)cc(OC)cc3o2)cc1 [acacetin 7-methyl ether] | 0.2 |  |  |  |  |  |  |  |  | 
2 | COc1cc2c(cc1O[C@@H]1O[C@H](CO)[C@@H](O)[C@H](O)[C@H]1O)O[C@H](c1ccccc1)[C@@H](O)C2=O [Compound 2, (2R,3R)-3-hydroxy-7-O-β-D-glucopyranoside-6-methoxyflavanone] |  | 97.5 ± 0.42 | 164 ± 2.96 | 84.8 | > 40 | 98.3 ± 2.01 | > 40 | 69.6 ± 2.46 |  | 
3 | COc1ccc(-c2coc3cc(O[C@@H]4O[C@H](CO)[C@@H](O)[C@H](O)[C@H]4O)ccc3c2=O)cc1 [Compound 4, ononin] |  | 96.7 ± 1.68 | 85.9 ± 0.08 | 86.1 ± 1.79 | > 40 | 98.3 ± 1.64 | 28.5 ± 1.55 | 63.5 ± 1.23 | >1.40 | 
4 | COc1cc([C@H]2OC[C@H]3[C@@H]2CO[C@@H]3c2cc(OC)c(O[C@@H]3O[C@H](CO)[C@@H](O)[C@H](O)[C@H]3O)c(OC)c2)cc(OC)c1O [Compound 3, (–)-syringaresinol-4-O-β-D-glucopyranoside] |  | 98.9 ± 1.54 | 76.7 ± 4.92 | 95.22 ± 0.08 | > 40 | 80 ± 2.02 | > 40 | 93.6 ± 3.47 |  | 
5 | COc1cc(O)c2c(=O)c(-c3ccc(OC)c(O)c3)coc2c1 [Compound 10, 7,4′-dimethyl-3′-hydroxygenistein] |  | 98.1 ± 1.98 | 78.86 ± 0.56 | 78.4 ± 3.4 | 8.05 ± 0.1 | 41 ± 1.09 | 3.47 ± 0.055 | 16.9 ± 2.47 | 2.32 | 
6 | C[C@@H]1O[C@@H](OC[C@H]2O[C@@H](Oc3c(-c4ccc(O)c(O)c4)oc4cc(O)cc(O)c4c3=O)[C@H](O)[C@@H](O)[C@@H]2O)[C@H](O)[C@H](O)[C@H]1O [Compound 1, rutin] |  | 99.2 ± 0.88 | 82.6 ± 3.77 | 92.4 ± 7.16 | > 40 | 96.8 ± 1.52 | > 40 | 75.2 ± 6.76 |  | 
7 | COc1cc([C@H]2OC[C@H]3[C@@H]2CO[C@@H]3c2cc(OC)c(O)c(OC)c2)cc(OC)c1O [Compound 5, (+)-syringaresinol] |  |  | 81.7 ± 4.01 |  | > 40 | 80.4 ± 6.57 | 24.3 ± 2.2 | 63.2 ± 6.24 |  | 
8 | COc1ccc2c(c1)OC[C@H]1c3cc4c(cc3O[C@@H]21)OCO4 [Compound 12, 3-methoxy-8,9-methylenedioxypterocarpan] |  | 93.6 ± 2.11 | 102.4 ± 0.4 | 84.9 ± 0.61 | 12.5 ± 0.33 | 60.3 ± 0.9 | 3.36 ± 0.09 | 13 ± 0.72 | 3.72 | 7.47
9 | COc1cc2c(cc1O)O[C@H](c1ccccc1)[C@@H](O)C2=O [Compound 6, (2R,3R)-3,7-dihydroxy-6-methoxyflavanone] |  | 91.8 ± 1.35 | 95.72 ± 0.86 | 84.3 ± 1.31 | > 40 | 94.8 ± 1.9 | > 40 | 94.6 ± 4.21 |  | 
10 | COc1ccc(-c2coc3cc(OC)ccc3c2=O)cc1 [Compound 11, 7,4′-dimethoxyisoflavone] |  | 98.7 ± 0.66 | 91.96 ± 0.59 | 82.7 ± 5.44 | 9.8 ± 0.27 | 49.1 ± 2.25 | 13.7 ± 0.1 | 62 ± 1.09 | 0.72 | 
11 | COc1ccc(-c2coc3cc(O)ccc3c2=O)cc1O [calycosin] | 0.24 |  |  |  |  |  |  |  |  | 
12 | COc1cc(O)c2c(=O)c(-c3ccc(O)cc3)coc2c1 [Compound 9, prunetin] |  | 93 ± 0.65 | 87.73 ± 0.59 | 83.2 ± 4.76 | 2.49 ± 0.32 | 24.8 ± 1.22 | 5.18 ± 0.059 | 30.8 ± 0.82 | 0.48 | 
13 | COc1cc(O)c2c(=O)c(-c3ccc(O)cc3O)coc2c1 [Compound 7, cajanin] |  | 86.9 ± 2.11 | 83.25 ± 0.45 | 70.8 ± 7.2 | 13.1 ± 0.23 | 56.9 ± 0.92 | 5.18 ± 0.11 | 31.6 ± 4.21 | 2.53 | 
